Results from patent US20230000773A1, “NOVEL HEADGROUP LIPID COMPOUNDS AND COMPOSITIONS FOR INTRACELLULAR DELIVERY OF THERAPEUTIC AGENTS” (ModernaTX, Inc., priority 2019, published 2023).

Columns and labels:
[1] = Heparin-sepharose binding of nanoparticles
[2] = Size and polydispersity index of nanoparticles comprising compounds of the disclosure; assay type: physicochemical; conditions: compound:DSPC:cholesterol:PEG 2 50:10:38:2 mol %
Description: Lipid nanoparticles (e.g., empty LNPs or loaded LNPs) may be characterized by a variety of methods. For example, microscopy (e.g., transmission electron microscopy or scanning electron microscopy) may be used to examine the morphology and size distribution of a nanoparticle composition. Dynamic light scattering or potentiometry (e.g., potentiometric titrations) may be used to measure zeta potentials. Dynamic light scattering may also be utilized to determine particle sizes. Instruments such as the Zetasizer Nano ZS (Malvern Instruments Ltd, Malvern, Worcestershire, UK) may also be used to measure multiple characteristics of a nanoparticle composition, such as particle size, polydispersity index, and zeta potential.
(§1) Nanoparticle compositions including a therapeutic and/or prophylactic can be optimized according to the selection of a compound according to Formula (I), (I-1), (A), (A-1), (A-1a), or (A-1b), the selection of additional lipids, the amount of each lipid in the lipid component, and the wt:wt ratio of the lipid component to the therapeutic and/or prophylactic. Nanoparticle compositions including DSPC as a phospholipid, cholesterol as a structural lipid, PEG 2 as a PEG lipid, and a compound according to Formula (I), (I-1), (A), (A-1), (A-1a), or (A-1b) were prepared. The ratios of the lipids were 50:10:38:2 mol % for the lipid according to Formula (I), (I-1), (A), (A-1), (A-1a), or (A-1b):DSPC:cholesterol:PEG 2. […]

[3] = Apparent LNP pKa by 2-(p-toluidino)-6-napthalene sulfonic acid (TNS) assay; assay type: physicochemical; conditions: pH at half of maximum fluorescence
mRNA = mRNA integrity in nanoparticles by RP-IP HPLC (UV 260 nm); assay type: physicochemical
Protocol: Integrity of mRNA comprised in nanoparticles of the disclosure, i.e., the percentages of intact mRNA, mRNA adducts, and mRNA hydrolysis products, […] (Reverse-Phase Ion-Pairing HPLC) using UV detection at 260 nm. Total purity and impurities are calculated as percent peak area.

[4] = Encapsulation efficiency (% EE), ribostar; assay type: physicochemical; conditions: nanoparticles, compound:DSPC:cholesterol:PEG 2 50:10:38:2 mol %
Description: The efficiency of encapsulation of a therapeutic and/or prophylactic describes the amount of therapeutic and/or prophylactic that is encapsulated or otherwise associated with a lipid nanoparticle (e.g., an empty LNP or a loaded LNP) after preparation, relative to the initial amount provided. The encapsulation efficiency is desirably high (e.g., close to 100%). The encapsulation efficiency may be measured, for example, by comparing the amount of therapeutic and/or prophylactic in a solution containing the lipid nanoparticle (e.g., an empty LNP or a loaded LNP) before and after breaking up the lipid nanoparticle (e.g., an empty LNP or a loaded LNP) with one or more organic solvents or detergents. Fluorescence may be used to measure the amount of free therapeutic and/or prophylactic (e.g., RNA) in a solution. For the lipid nanoparticles (e.g., empty LNPs or loaded LNPs) described herein, the encapsulation efficiency of a therapeutic and/or prophylactic may be at least 50%, for example 50%, 55%, 60%, 65%, 70%, 75%, 80%, 85%, 90%, 91%, 92%, 93%, 94%, 95%, 96%, 97%, 98%, 99%, or 100%. In some embodiments, the encapsulation efficiency may be at least 80%. In certain embodiments, the encapsulation efficiency may be at least 90%. In some embodiments, the encapsulation efficiency of the therapeutic and/or prophylactic agent is between 80% and 100%.
Nanoparticle compositions including a therapeutic and/or prophylactic can be optimized according to the selection of a compound according to Formula (I), (I-1), (A), (A-1), (A-1a), or (A-1b), the selection of additional lipids, the amount of each lipid in the lipid component, and the wt:wt ratio of the lipid component to the therapeutic and/or prophylactic. Nanoparticle compositions including DSPC as a phospholipid, cholesterol as a structural lipid, PEG 2 as a PEG lipid, and a compound according to Formula (I), (I-1), (A), (A-1), (A-1a), or (A-1b) were prepared. The ratios of the lipids were 50:10:38:2 mol % for the lipid according to Formula (I), (I-1), (A), (A-1), (A-1a), or (A-1b):DSPC:cholesterol:PEG 2. Tables 2a, 2b, and 3-5 summarize the characteristics of the formulations.
Table 4 summarizes the surface hydrophobicity of nanoparticles comprising compounds of the disclosure as determined by Generalized Polarization by Laurdan (GPL). Laurdan, a fluorescent aminonaphthalene ketone lipid, was post-inserted into the nanoparticle surface and the fluorescence spectrum of Laurdan was collected to determine the normalized Generalized Polarization (N-GP). Higher N-GP indicates a less polar surface.

hEPO mRNA = test: hEPO expression in CD1-mice after intravenous administration of nanoparticles; assay type: in vivo; conditions: 6 h after intravenous administration, mRNA dose 0.5 mg/kg, N:P 3.4, compound:DSPC:cholesterol:PEG 2 50:10:38:2
Protocol: The expression of hEPO mRNA in CD1-mice was measured 6 h after intravenous administration of nanoparticles comprising a compound of the disclosure, DSPC, cholesterol, and PEG 2 in a ratio of 50:10:38:2. […] Each composition was dosed to 8 animals at an mRNA dose of 0.5 mg/kg.

serum protein ApoE = test: ApoE binding affinity of nanoparticles (bead binding, flow cytometry)
Protocol: The ApoE binding affinity, i.e., the affinity of binding between nanoparticles comprising compounds of the disclosure and the serum protein ApoE, was determined by binding the nanoparticles to beads, then incubating them with known quantities of […]. The quantity of protein bound to the nanoparticle was then determined by flow cytometry.

[5] = Encapsulation efficiency (% EE), ribogreen; assay type: physicochemical; conditions: nanoparticles, compound:DSPC:cholesterol:PEG 2 50:10:38:2 mol %
Description: The efficiency of encapsulation of a therapeutic and/or prophylactic describes the amount of therapeutic and/or prophylactic that is encapsulated or otherwise associated with a lipid nanoparticle (e.g., an empty LNP or a loaded LNP) after preparation, relative to the initial amount provided. The encapsulation efficiency is desirably high (e.g., close to 100%). The encapsulation efficiency may be measured, for example, by comparing the amount of therapeutic and/or prophylactic in a solution containing the lipid nanoparticle (e.g., an empty LNP or a loaded LNP) before and after breaking up the lipid nanoparticle (e.g., an empty LNP or a loaded LNP) with one or more organic solvents or detergents. Fluorescence may be used to measure the amount of free therapeutic and/or prophylactic (e.g., RNA) in a solution.
as §1

[6] = Surface hydrophobicity by Generalized Polarization by Laurdan (GPL); assay type: physicochemical; conditions: normalized Generalized Polarization by Laurdan; higher N-GP = less polar surface
Outline: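 LNPs contained ionizable lipid:DSPC:cholesterol:PEG lipid at 50:10:38:2 mol %. Laurdan was post-inserted into the particle surface, and its fluorescence spectrum gave normalized generalized polarization (N-GP); higher N-GP means a less polar surface.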

[7] = mRNA integrity after 2 weeks at 25° C., percent peak area
[8] = mRNA integrity at t = 0, percent peak area

SMILES | Relative % Area Bound by LNP [1] | PDI [2] | Size (nm) [2] | LogIC50 (pKa) [3] | Adduct (mRNA; [7]) | Hydrolysis Product (mRNA; [7]) | Intact (mRNA; [7]) | Adduct (mRNA; [8]) | Hydrolysis Product (mRNA; [8]) | Intact (mRNA; [8]) | % EE (ribostar) [4] | Avg. [hEPO] mIU/mL (hEPO mRNA) | Median Fluorescence Intensity, PE (serum protein ApoE) | % EE (ribogreen) [5] | Average N-GP [6]
CCCCCCCCC(CC)OC(=O)CCCCCCCN(CCCCCCCC(=O)OC(CCCCCCCC)CCCCCCCC)CCCNS(=O)(=O)CC (stereo not drawn) [Compound 66, Heptadecan-9-yl 8-((3-(ethylsulfonamido)propyl)(8-oxo-8-(undecan-3-yloxy)octyl)amino)octanoate] | 3.54% | 0.125 | 70.1 nm | 6.64 | 27.2% | 32.9% | 39.9% | 13.1% | 32.9% | 54.0% | 59.1% | 1.57E+06 mIU/mL | 112648 | 91.8% | 0.837
CCCCCCCCC(CC)OC(=O)CCCCCCCN(CCCCCCCC(=O)OC(CCCCCCCC)CCCCCCCC)CCCNS(=O)(=O)C1CC1 (stereo not drawn) [Compound 67, Heptadecan-9-yl 8-((3-(cyclopropanesulfonamido)propyl)(8-oxo-8-(undecan-3-yloxy)octyl)amino)octanoate] | 6.69% | 0.123 | 71.7 nm | 6.67 | 26.3% | 39.0% | 34.7% | 10.1% | 32.8% | 57.1% | 48.5% | 1.43E+06 mIU/mL | 146715 | 84.1% | 0.890
CCCCCCCCC(CC)OC(=O)CCCCCCCN(CCCCCCCC(=O)OC(CCCCCCCC)CCCCCCCC)CCCNS(=O)(=O)C[C@H]1COCCO1 (stereo partly drawn) [Compound 70, Heptadecan-9-yl 8-((3-((((R)-1,4-dioxan-2-yl)methyl)sulfonamido)propyl)(8-oxo-8-(undecan-3-yloxy)octyl)amino)octanoate] | 0% | 0.123 | 72.6 nm | 6.75 | 12.7% | 50.1% | 37.2% | 10.3% | 40.2% | 49.5% | 60.7% | 9.18E+05 mIU/mL | 121247 | 89.9% | 0.902
CCCCCCCCC(CC)OC(=O)CCCCCCCN(CCCCCCCC(=O)OC(CCCCCCCC)CCCCCCCC)CCCNS(=O)(=O)Cc1ccon1 (stereo not drawn) [Compound 71, Heptadecan-9-yl 8-((3-((isoxazol-3-ylmethyl)sulfonamido)propyl)(8-oxo-8-(undecan-3-yloxy)octyl)amino)octanoate] | 0% | 0.109 | 64.7 nm | 6.54 | 20.2% | 35.9% | 43.9% | 8.7% | 30.8% | 60.6% | 50.7% | 1.50E+06 mIU/mL | 147047 | 90.8% | 0.874
